Like-named read-outs stand apart in the source and are kept apart here.
Legend:
[1] = molecular target: T1, hNudt16E76Q (Homo sapiens, UniProt Q96DE0, E76Q); experiment: Thermal stability of hNudt16E76Q with ligands, DSF with SYPRO Orange; format: binding; details: 5 µM hNudt16E76Q, 20 mM MgCl2, 0.5 mM ligand, 4× SYPRO Orange; for ∆Tm, DSF (with SYPRO Orange): relative to apo
T1 construct: 4xHis (four added histidines); made in house; host or cells: E. coli Rosetta 2 (DE3), pET16b
Experimental: The protein thermal stability of wild-type hNudt16 and all tested mutants in the presence of increasing Mg^2+ ion concentration was measured using DSF with SYPRO orange dye on CFX RT-PCR (Bio-Rad, Hercules, CA, USA). This method is based on the change in fluorescence of the SYPRO orange dye in an aqueous buffer, which is strongly quenched, while its binding to the exposed hydrophobic regions of thermally unfolded protein results in an increased fluorescence. The optimal concentrations of protein, SYPRO orange dye, and buffer composition, in particular ion content, were determined. The samples were prepared and measured in clear 96-well multiplate PCR plates for RT-PCR (Bio-Rad, Hercules, CA, USA). […] The individual components of the solution were added in equal volumes to each well, with a final sample volume of 25 μL/well. The samples were gently mixed, and the 96-well plate was covered with optically clear PCR sealing tape (Bio-Rad, Hercules, CA, USA) to prevent evaporation. […] The data processing procedure was performed using Bio-Rad CFX Manager (version 1.6.541.1028), and melting point temperatures were calculated as the minimum of the first derivative plot.
(§1) Protein thermal stability in the presence of various ligands was measured using two DSF methods: assays with SYPRO orange dye and dye-free assays. DSF assays with SYPRO orange dye were performed at specific ligand concentrations for each protein–ligand pair. This measurement was performed as described in Section 4.6.1, with a constant MgCl2 concentration of 20 mM and a concentration of the tested ligand maintained at 0.5 mM. DSF dye-free measurements were performed using a Prometheus NT.48 nanoDSF device (NanoTemper Technologies, München, Germany). The composition of the samples was identical to that in the DSF with SYPRO orange dye measurements, without the addition of any dye. […] The measurements were performed at a single ligand concentration for all ligands. After 10 min of pre-incubation, the samples were loaded into standard capillaries (NanoTemper Technologies, München, Germany). […] We fitted the melting temperatures (Tm) globally for at least three independent experiments (but separately for different DSF methods).

[2] = molecular target: T1, hNudt16E76Q; experiment: Thermal stability of hNudt16E76Q with ligands, dye-free nanoDSF; format: binding; details: for Tm, nanoDSF (Dye-Free) / ∆Tm, nanoDSF (Dye-Free): 5 µM hNudt16E76Q, 20 mM MgCl2, 0.5 mM ligand; for ∆Tm, nanoDSF (Dye-Free): relative to apo
Experimental: as §1

[3] = molecular target: hNudt16 (Homo sapiens, UniProt Q96DE0); experiment: Enzymatic hydrolysis catalyzed by hNudt16, products quantified by HPLC; format: biochemical; parameters: 4xHis (four added histidines); made in house; details: 20 µM substrate, 37 °C; for Susceptibility to hydrolysis by hNudt16 (in words): HPLC; for Hydrolysis Products / Hydrolysis Rate, v/[E]0 (hydrolyzed substrate per minute per [enzyme] µM) / Hydrolysis Rate, v/µg (hydrolyzed substrate per minute per enzyme µg): pH 7.9, 6 mM MgCl2, nd = hydrolysis products not detected
Experimental: Enzymatic hydrolysis catalyzed by hNudt16 was performed at 37 °C in 40 mM Tris buffer (pH 7.9) containing 100 mM NaCl, 6 mM MgCl2, and 2 mM DTT. The concentration of the investigated dinucleotides and mononucleotides was 20 µM in the reaction mixture.
The hydrolytic susceptibility of the compounds was studied using HPLC. Before each experiment, 1 mL of buffer solution containing the analyte was incubated at 37 °C for 10 min. The hydrolysis process was initiated by the addition of hNudt16. To analyze the reaction progress, 200-µL aliquots of the reaction mixture were withdrawn and incubated at 96 °C for 5 min to stop the reaction through heat inactivation of the enzyme. The samples were then subjected to an HPLC system (Agilent 1200 series, Agilent Technologies, California, USA) with a reverse-phase Supelcosil LC-18-T column and UV/VIS detector. The substrates and hydrolysis products were eluted at 20 °C with a linear gradient of methanol in 0.1 M KH2PO4 (from 0% to 40%) over 15 min at a flow rate of 1.0 mL/min. Changes in the absorbance at 260 nm were continuously monitored during the analysis. Hydrolysis products were identified by comparing their retention times with those of the reference samples. The extent of decapping, determined as the percentage of the hydrolyzed substrate, was calculated using the area under the chromatographic peak of the respective compounds.

[4] = molecular target: T1, hNudt16E76Q; experiment: Microscale thermophoresis (MST) binding, two independent binding sites model; details: for ΔGdiss1 (for Kd1): calculated as −RTlnKd from MST Kd1; for ΔGdiss2 (for Kd2): calculated as −RTlnKd from MST Kd2
Experimental: Binding constants for protein–ligand pairs were established using the MST method. The hNudt16 E76Q was labeled with RED-tris-NTA 2nd Generation dye (Monolith HIS-tag labeling Kit, NanoTemper Technologies, München, Germany) according to the manufacturer’s instructions. Measurements were carried out in a wide range of ligand concentrations, selected after preliminary tests for each of the ligands. The results obtained were used to determine of binding parameters for a given ligand. Each MST measurement consisted of a series of 16 serial 1:2 dilutions of the ligand, and was performed at a constant dye-labeled protein concentration of 50 nM. After 10 min of pre-incubation, dye-labeled protein–ligand samples were manually loaded into Monolith™ NT.115 Premium Capillaries (NanoTemper Technologies, München, Germany) and analyzed using the Monolith NT.115 (NanoTemper Technologies). […] Analysis was performed using Origin package (OriginLab, Northampton, MA, USA) and dissociation constants were fitted globally for a series of at least six MST pseudo-titration experiments for each ligand. Up to 10 replicates were performed for some ligands.
For the dissociation constants obtained, we also calculated the free energy associated with the dissociation of the complex ΔGdiss according to the equation: ΔGdiss=−RTlnKd.

[5] = second, weaker binding site, read-out: Kd2
[6] = stronger binding site, 50 nM dye-labeled protein, read-out: Kd1

hNudt16, sequence (Q96DE0 whole entry): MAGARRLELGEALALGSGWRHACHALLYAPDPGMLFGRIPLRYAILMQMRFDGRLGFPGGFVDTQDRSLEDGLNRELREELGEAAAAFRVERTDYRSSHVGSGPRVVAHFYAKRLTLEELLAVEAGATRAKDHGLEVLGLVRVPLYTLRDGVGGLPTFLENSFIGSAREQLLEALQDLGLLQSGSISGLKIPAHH
T1 sequence (Q96DE0 whole entry E76Q): as the sequence (Q96DE0 whole entry) above, with E76Q counted along it

SMILES | Tm, DSF (with SYPRO Orange) [1] [°C] | ∆Tm, DSF (with SYPRO Orange) [1] [°C] | Tm, nanoDSF (Dye-Free) [2] [°C] | ∆Tm, nanoDSF (Dye-Free) [2] [°C] | Susceptibility to hydrolysis by hNudt16 (in words) [3] | ΔTm relative to the apo form, both DSF and nanoDSF ([2]; 0.5 mM ligand, stated for both types of measurements) | ΔGdiss1 (for Kd1) [4] [kcal/mol] | ΔGdiss2 (for Kd2) [4] [kcal/mol] | Kd [4, 5] [µM] | Kd [4, 6] [µM] | Hydrolysis Products [3] | Hydrolysis Rate, v/[E]0 (hydrolyzed substrate per minute per [enzyme] µM) [3] | Hydrolysis Rate, v/µg (hydrolyzed substrate per minute per enzyme µg) [3] [µM/min/µg]
C[n+]1cn([C@@H]2O[C@H](COP(=O)(O)OP(=O)(O)O)[C@@H](O)[C@H]2O)c2nc(N)[nH]c(=O)c21 [m^7GDP, 7-methylguanosine diphosphate] | 64.4 ± 0.1 | 0.7 ± 0.1 | 66.7 ± 0.1 | 1.6 ± 0.1 | resistant to hydrolytic cleavage |  |  |  |  |  |  |  | 
O=c1[nH]cnc2c1ncn2[C@@H]1O[C@H](COP(=O)(O)OP(=O)(O)O)[C@@H](O)[C@H]1O [IDP, Inosine diphosphate] | 81.5 ± 0.1 | 17.8 ± 0.1 | 82.9 ± 0.1 | 17.8 ± 0.1 | very rapid hydrolysis reaction | 17.5–18.0 °C | 10.04 | 8.078 | 1.2 ± 0.2 |  |  |  | 
Nc1nc2c(ncn2[C@@H]2O[C@H](COP(=O)(O)OP(=O)(O)O)[C@@H](O)[C@H]2O)c(=O)[nH]1 [GDP, Guanosine diphosphate] | 77.0 ± 0.1 | 13.3 ± 0.1 | 78.6 ± 0.1 | 13.5 ± 0.1 |  |  | 8.97 | 5.911 | 45.6 ± 2.4 | 0.258 ± 0.045 |  |  | 
Nc1nc2c(ncn2[C@@H]2O[C@H](COP(=O)(O)OP(=O)(O)OP(=O)(O)OC[C@H]3O[C@@H](n4cnc5c(=O)[nH]c(N)nc54)[C@H](O)[C@@H]3O)[C@@H](O)[C@H]2O)c(=O)[nH]1 [GpppG] | 74.8 ± 0.1 | 11.0 ± 0.1 | 76.0 ± 0.1 | 10.9 ± 0.1 |  |  |  |  |  |  |  |  | 
NC(=O)C1=CN([C@@H]2O[C@H](COP(=O)(O)OP(=O)(O)OC[C@H]3O[C@@H](n4cnc5c(N)ncnc54)[C@H](O)[C@@H]3O)[C@@H](O)[C@H]2O)C=CC1 [NADH, Reduced NAD+] | 64.9 ± 0.1 | 1.1 ± 0.1 | 67.4 ± 0.1 | 2.4 ± 0.1 |  |  |  |  |  |  | AMP + NMNH | 18.7 ± 1.5 µM/min/[E]0 | 0.78 ± 0.06
NC(=O)c1ccc[n+]([C@@H]2O[C@H](COP(=O)([O-])OP(=O)(O)OC[C@H]3O[C@@H](n4cnc5c(N)ncnc54)[C@H](O)[C@@H]3O)[C@@H](O)[C@H]2O)c1 [NAD, Nicotinamide adenine dinucleotide] | 63.7 ± 0.1 | 0.0 ± 0.1 | 66.1 ± 0.1 | 1.1 ± 0.1 |  |  |  |  |  |  | NMN + AMP | 3.4 ± 0.4 µM/min/[E]0 | 0.14 ± 0.02
Nc1ncnc2c1ncn2[C@@H]1O[C@H](COP(=O)(O)OP(=O)(O)OC[C@H]2O[C@@H](n3cnc4c(N)ncnc43)[C@H](O)[C@@H]2O)[C@@H](O)[C@H]1O [AppA] | 65.2 ± 0.1 | 1.5 ± 0.1 | 66.8 ± 0.1 | 1.7 ± 0.1 |  |  | 4.192 |  |  | 833 | AMP | 40.8 ± 2.9 µM/min/[E]0 | 1.70 ± 0.12
Nc1ccn([C@@H]2O[C@H](COP(=O)(O)OP(=O)(O)O)[C@@H](O)[C@H]2O)c(=O)n1 [CDP, Cytidine diphosphate] | 65.6 ± 0.1 | 1.81 ± 0.1 | 66.8 ± 0.1 | 1.66 ± 0.1 |  |  |  |  |  |  |  |  | 
CC(C)(COP(=O)(O)OP(=O)(O)OC[C@H]1O[C@@H](n2cnc3c(N)ncnc32)[C@H](O)[C@@H]1O)[C@@H](O)C(=O)NCCC(=O)NCCS [dpCoA, Dephospho-coenzyme A] | 67.0 ± 0.1 | 3.3 ± 0.1 | 68.1 ± 0.1 | 3.1 ± 0.1 |  |  | 5.951 | ≤2.481 | ≥ 15000 | 43 | AMP + dpCop | 18.0 ± 1.3 µM/min/[E]0 | 0.75 ± 0.05
Cn1c[n+]([C@@H]2O[C@H](COP(=O)(O)OP(=O)([O-])OP(=O)(O)OC[C@H]3O[C@@H](n4cnc5c(=O)[nH]c(N)nc54)[C@H](O)[C@@H]3O)[C@@H](O)[C@H]2O)c2nc(N)[nH]c(=O)c21 [m^7GpppG] | 72.3 ± 0.1 | 8.5 ± 0.1 | 73.5 ± 0.1 | 8.4 ± 0.1 |  |  | 8.026 |  | 230 ± 57 | 1.7 |  |  | 

— publication PMC8535469, “Insight into the Binding and Hydrolytic Preferences of hNudt16 Based on Nucleotide Diphosphate Substrates” (International Journal of Molecular Sciences, 2021)
